Patent US20070149465A1, “COMPOSITIONS AND METHODS FOR PREVENTION AND TREATMENT OF CACHEXIA” (priority 2005, published 2007)
Converted amounts (≈) assume the structure as drawn.

Assays:
AH-inoculated rats = test: Rat AH130 Ascites Hepatoma Model of Cancer Cachexia, AH-inoculated rats; format: in vivo, female Wistar rats
Method: (§1) Following the method of Busquets et al (Busquets S, et al: Cancer Res 64:6725-31, 2004), female Wistar rats were inoculated (Day 0) intra-peritoneally (i.p.) with 2×10^7 cells/animal of Yoshida AH-130 ascites hepatoma (AH) cells. Control animals were inoculated with an equivalent amount of sterile saline solution. […] The animals were sacrificed on Day 5. Upon sacrifice, wet weights of heart and gastrocnemius muscle were determined. Carcass (after gastrocnemius, heart, and ascites removal) weight was also determined upon sacrifice.
(§2) Treatment Group=Inoculation Type/Vehicle, or Treatment Group=Inoculation Type/F(x)R(y) where, Inoculation Type is either AH or Saline, F is formoterol fumarate, R is roxithromycin, and the parenthetical values are formoterol fumarate and roxithromycin doses (i.p. in mg/kg).

[1] = Aqueous solubility of roxithromycin (pH, buffer, ethanol); format: physicochemical; conditions: 25 °C, thermodynamic from solid
Method: (§3) The solutions were syringe-filtered and analyzed by HPLC for [roxithromycin]. Roxithromycin Potency was assayed by a reverse-phase HPLC method that meets the requirements of the European Pharmacopeia (EP) Monograph for roxithromycin. Solution pH values were determined per USP <791> and solution osmolality values were determined per USP <785>. Aqueous solubility limits were determined for roxithromycin as a function of buffer type (phosphate versus citrate), buffer concentration, pH, and added co-solvent (ethanol).

Saline-inoculated rats = test: Rat AH130 experiments, saline-inoculated control rats given drug; format: in vivo, female Wistar rats; conditions: for Carcass Weights Mean / Gastrocnemius Weights Mean / Heart Weights Mean: Saline, Day 5, normalized to 100 g Day 5 Total Body Weight
Method: as §1, §2

[2] = Solution osmolality of roxithromycin citrate solutions; format: physicochemical; conditions: 25° C.
Method: as §3

[3] = Stability of formoterol fumarate and roxithromycin co-formulated in oral solution; format: physicochemical; conditions: co-formulated 0.005 mg/mL formoterol fumarate + 2.0 mg/mL roxithromycin, pH 6.0, 20 mM citrate, 4.5% mannitol, 0.1% potassium sorbate
Method: Roxithromycin Potency was assayed by a reverse-phase HPLC method that meets the requirements of the European Pharmacopeia (EP) Monograph for roxithromycin.

[4] = Exp 1 Group 4, AH, F 0, R 5 mg/kg i.p., Day 5, normalized to 100 g Day 5 Total Body Weight
[5] = Exp 4 Group 21, AH, F 0, R 50 mg/kg i.p., Day 5, sample weight normalized to 100 g Day 5 Total Body Weight
[6] = Experiment 4, AH/F(0)R(50) group
[7] = Exp 2 Group 9, F 0, R 5 mg/kg i.p.
[8] = Exp 3 Group 15, F 0, R 40 mg/kg i.p.

CC[C@H]1OC(=O)[C@H](C)[C@@H](O[C@H]2C[C@@](C)(OC)[C@@H](O)[C@H](C)O2)[C@H](C)[C@@H](O[C@@H]2O[C@H](C)C[C@H](N(C)C)[C@H]2O)[C@](C)(O)C[C@@H](C)/C(=N\OCOCCOC)[C@H](C)[C@@H](O)[C@]1(C)O [roxithromycin]
Carcass Weights Mean (AH-inoculated rats; [4]): 94.35 g | Gastrocnemius Weights Mean (AH-inoculated rats; [4]): 0.493 g | Heart Weights Mean (AH-inoculated rats; [4]): 0.320 g | Carcass Mean (AH-inoculated rats; [5]): 94.1 | Gastrocnemius Mean (AH-inoculated rats; [5]): 0.500 | Heart Mean (AH-inoculated rats; [5]): 0.338 | gastrocnemius muscle loss compared with AH/vehicle group (AH-inoculated rats; Experiment 1, AH/F(0)R(5) group): approximately the same amount | gastrocnemius muscle weights compared with AH/vehicle group (AH-inoculated rats; [6]): significantly larger | gastrocnemius weights compared with AH/F(1)R(0) group (AH-inoculated rats; [6]): essentially identical | gastrocnemius weights compared with AH/F(1)R(50) group (AH-inoculated rats; [6]): slightly less | muscle wasting associated with the AH rat model (AH-inoculated rats; summary of Experiments 1-4): prevents muscle wasting | preventing AH-induced gastrocnemius muscle loss, roxithromycin alone compared with formoterol fumarate alone (AH-inoculated rats; summary of Experiments 1-4): effective as formoterol fumarate alone | solubility at 24 h ([1]; citrate buffer, pH 4, aqueous buffer, 20 mM citrate, pH 4): 4130 µg/mL (≈ 4.93 mM) | solubility at 24 h ([1]; citrate buffer, pH 4, aqueous buffer, 50 mM citrate, pH 4): 4610 µg/mL (≈ 5.51 mM) | solubility at 24 h ([1]; citrate buffer, pH 4, aqueous buffer, 100 mM citrate, pH 4): 1890 µg/mL (≈ 2.26 mM) | solubility at 24 h ([1]; citrate buffer, pH 4, aqueous buffer, 200 mM citrate, pH 4): 2740 µg/mL (≈ 3.27 mM) | solubility at 24 h ([1]; citrate buffer, pH 5, aqueous buffer, 20 mM citrate, pH 5): 3540 µg/mL (≈ 4.23 mM) | solubility at 24 h ([1]; citrate buffer, pH 5, aqueous buffer, 50 mM citrate, pH 5): 3570 µg/mL (≈ 4.26 mM) | solubility at 24 h ([1]; citrate buffer, pH 5, aqueous buffer, 100 mM citrate, pH 5): 2770 µg/mL (≈ 3.31 mM) | solubility at 24 h ([1]; citrate buffer, pH 5, aqueous buffer, 200 mM citrate, pH 5): 1900 µg/mL (≈ 2.27 mM) | solubility at 24 h ([1]; citrate buffer, pH 6, aqueous buffer, 20 mM citrate, pH 6): 2450 µg/mL (≈ 2.93 mM) | solubility at 24 h ([1]; citrate buffer, pH 6, aqueous buffer, 50 mM citrate, pH 6): 2760 µg/mL (≈ 3.3 mM) | solubility at 24 h ([1]; citrate buffer, pH 6, aqueous buffer, 100 mM citrate, pH 6): 2300 µg/mL (≈ 2.75 mM) | solubility at 24 h ([1]; citrate buffer, pH 6, aqueous buffer, 200 mM citrate, pH 6): 1720 µg/mL (≈ 2.05 mM) | solubility at 24 h ([1]; citrate buffer, pH 7, aqueous buffer, 20 mM citrate, pH 7): 500 µg/mL (≈ 0.597 mM) | solubility at 24 h ([1]; citrate buffer, pH 7, aqueous buffer, 50 mM citrate, pH 7): 980 µg/mL (≈ 1.17 mM) | solubility at 24 h ([1]; citrate buffer, pH 7, aqueous buffer, 100 mM citrate, pH 7): 1230 µg/mL (≈ 1.47 mM) | solubility at 24 h ([1]; citrate buffer, pH 7, aqueous buffer, 200 mM citrate, pH 7): 1250 µg/mL (≈ 1.49 mM) | solubility at 24 h ([1]; phosphate buffer with ethanol co-solvent, pH 5, aqueous with cosolvent or surfactant or cyclodextrin, pH 5, 10 mM phosphate, 5% ethanol): 3500 µg/mL (≈ 4.18 mM) | solubility at 24 h ([1]; phosphate buffer with ethanol co-solvent, pH 5, aqueous with cosolvent or surfactant or cyclodextrin, pH 5, 10 mM phosphate, 10% ethanol): 3800 µg/mL (≈ 4.54 mM) | solubility at 24 h ([1]; phosphate buffer with ethanol co-solvent, pH 5, aqueous with cosolvent or surfactant or cyclodextrin, pH 5, 20 mM phosphate, 5% ethanol): 5500 µg/mL (≈ 6.57 mM) | solubility at 24 h ([1]; phosphate buffer with ethanol co-solvent, pH 5, aqueous with cosolvent or surfactant or cyclodextrin, pH 5, 20 mM phosphate, 10% ethanol): 6000 µg/mL (≈ 7.17 mM) | solubility at 24 h ([1]; phosphate buffer with ethanol co-solvent, pH 5, aqueous with cosolvent or surfactant or cyclodextrin, pH 5, 50 mM phosphate, 5% ethanol): 8300 µg/mL (≈ 9.92 mM) | solubility at 24 h ([1]; phosphate buffer with ethanol co-solvent, pH 5, aqueous with cosolvent or surfactant or cyclodextrin, pH 5, 50 mM phosphate, 10% ethanol): 9200 µg/mL (≈ 11 mM) | solubility at 24 h ([1]; phosphate buffer with ethanol co-solvent, pH 6, aqueous with cosolvent or surfactant or cyclodextrin, pH 6, 10 mM phosphate, 5% ethanol): 4100 µg/mL (≈ 4.9 mM) | solubility at 24 h ([1]; phosphate buffer with ethanol co-solvent, pH 6, aqueous with cosolvent or surfactant or cyclodextrin, pH 6, 10 mM phosphate, 10% ethanol): 3900 µg/mL (≈ 4.66 mM) | solubility at 24 h ([1]; phosphate buffer with ethanol co-solvent, pH 6, aqueous with cosolvent or surfactant or cyclodextrin, pH 6, 20 mM phosphate, 5% ethanol): 4600 µg/mL (≈ 5.5 mM) | solubility at 24 h ([1]; phosphate buffer with ethanol co-solvent, pH 6, aqueous with cosolvent or surfactant or cyclodextrin, pH 6, 20 mM phosphate, 10% ethanol): 5000 µg/mL (≈ 5.97 mM) | solubility at 24 h ([1]; phosphate buffer with ethanol co-solvent, pH 6, aqueous with cosolvent or surfactant or cyclodextrin, pH 6, 50 mM phosphate, 5% ethanol): 8100 µg/mL (≈ 9.68 mM) | solubility at 24 h ([1]; phosphate buffer with ethanol co-solvent, pH 6, aqueous with cosolvent or surfactant or cyclodextrin, pH 6, 50 mM phosphate, 10% ethanol): 9300 µg/mL (≈ 11.1 mM) | solubility at 24 h ([1]; phosphate buffer with ethanol co-solvent, pH 7, aqueous with cosolvent or surfactant or cyclodextrin, pH 7, 10 mM phosphate, 5% ethanol): 1800 µg/mL (≈ 2.15 mM) | solubility at 24 h ([1]; phosphate buffer with ethanol co-solvent, pH 7, aqueous with cosolvent or surfactant or cyclodextrin, pH 7, 10 mM phosphate, 10% ethanol): 1700 µg/mL (≈ 2.03 mM) | solubility at 24 h ([1]; phosphate buffer with ethanol co-solvent, pH 7, aqueous with cosolvent or surfactant or cyclodextrin, pH 7, 20 mM phosphate, 5% ethanol): 1700 µg/mL (≈ 2.03 mM) | solubility at 24 h ([1]; phosphate buffer with ethanol co-solvent, pH 7, aqueous with cosolvent or surfactant or cyclodextrin, pH 7, 20 mM phosphate, 10% ethanol): 2100 µg/mL (≈ 2.51 mM) | solubility at 24 h ([1]; phosphate buffer with ethanol co-solvent, pH 7, aqueous with cosolvent or surfactant or cyclodextrin, pH 7, 50 mM phosphate, 5% ethanol): 2300 µg/mL (≈ 2.75 mM) | solubility at 24 h ([1]; phosphate buffer with ethanol co-solvent, pH 7, aqueous with cosolvent or surfactant or cyclodextrin, pH 7, 50 mM phosphate, 10% ethanol): 3100 µg/mL (≈ 3.7 mM) | solubility at 24 h ([1]; phosphate buffer, pH 5, aqueous buffer, pH 5, 10 mM phosphate, 0% ethanol): 3200 µg/mL (≈ 3.82 mM) | solubility at 24 h ([1]; phosphate buffer, pH 5, aqueous buffer, pH 5, 20 mM phosphate, 0% ethanol): 5200 µg/mL (≈ 6.21 mM) | solubility at 24 h ([1]; phosphate buffer, pH 5, aqueous buffer, pH 5, 50 mM phosphate, 0% ethanol): 7200 µg/mL (≈ 8.6 mM) | solubility at 24 h ([1]; phosphate buffer, pH 6, aqueous buffer, pH 6, 10 mM phosphate, 0% ethanol): 2800 µg/mL (≈ 3.35 mM) | solubility at 24 h ([1]; phosphate buffer, pH 6, aqueous buffer, pH 6, 20 mM phosphate, 0% ethanol): 4200 µg/mL (≈ 5.02 mM) | solubility at 24 h ([1]; phosphate buffer, pH 6, aqueous buffer, pH 6, 50 mM phosphate, 0% ethanol): 6700 µg/mL (≈ 8 mM) | solubility at 24 h ([1]; phosphate buffer, pH 7, aqueous buffer, pH 7, 10 mM phosphate, 0% ethanol): 1400 µg/mL (≈ 1.67 mM) | solubility at 24 h ([1]; phosphate buffer, pH 7, aqueous buffer, pH 7, 20 mM phosphate, 0% ethanol): 1300 µg/mL (≈ 1.55 mM) | solubility at 24 h ([1]; phosphate buffer, pH 7, aqueous buffer, pH 7, 50 mM phosphate, 0% ethanol): 2000 µg/mL (≈ 2.39 mM) | Carcass Weights Mean (Saline-inoculated rats; [7]): 97.6 g | Gastrocnemius Weights Mean (Saline-inoculated rats; [7]): 0.575 g | Heart Weights Mean (Saline-inoculated rats; [7]): 0.390 g | Carcass Weights Mean (Saline-inoculated rats; [8]): 96.5 g | Gastrocnemius Weights Mean (Saline-inoculated rats; [8]): 0.529 g | Heart Weights Mean (Saline-inoculated rats; [8]): 0.400 g | gastrocnemius muscle weights compared with Saline/vehicle group (Saline-inoculated rats; Experiment 2, Saline/F(0)R(5) group): approximately the same | gastrocnemius muscle weights compared with Saline/vehicle control group (Saline-inoculated rats; Experiment 3, Saline/F(0)R(40) group): not different | Solution Osmolaltiy ([2]; 20 mM citrate, pH 4): 43 mOsm/kG | Solution Osmolaltiy ([2]; 20 mM citrate, pH 5): 47 mOsm/kG | Solution Osmolaltiy ([2]; 20 mM citrate, pH 6): 57 mOsm/kG | Solution Osmolaltiy ([2]; 20 mM citrate, pH 7): 60 mOsm/kG | Solution Osmolaltiy ([2]; 50 mM citrate, pH 4): 110 mOsm/kG | Solution Osmolaltiy ([2]; 50 mM citrate, pH 5): 124 mOsm/kG | Solution Osmolaltiy ([2]; 50 mM citrate, pH 6): 139 mOsm/kG | Solution Osmolaltiy ([2]; 50 mM citrate, pH 7): 138 mOsm/kG | Solution Osmolaltiy ([2]; 100 mM citrate, pH 4): 203 mOsm/kG | Solution Osmolaltiy ([2]; 100 mM citrate, pH 5): 243 mOsm/kG | Solution Osmolaltiy ([2]; 100 mM citrate, pH 6): 260 mOsm/kG | Solution Osmolaltiy ([2]; 100 mM citrate, pH 7): 271 mOsm/kG | Solution Osmolaltiy ([2]; 200 mM citrate, pH 4): 366 mOsm/kG | Solution Osmolaltiy ([2]; 200 mM citrate, pH 5): 462 mOsm/kG | Solution Osmolaltiy ([2]; 200 mM citrate, pH 6): 521 mOsm/kG | Solution Osmolaltiy ([2]; 200 mM citrate, pH 7): 532 mOsm/kG | Roxithromycin Potency ([3]; week 0, 5 ° C.): 1920 µg/mL | Roxithromycin Potency ([3]; week 0, 25 ° C.): 1920 µg/mL | Roxithromycin Potency ([3]; week 0, 40 ° C.): 1920 µg/mL | Roxithromycin Potency ([3]; week 2, 25 ° C.): 1740 µg/mL | Roxithromycin Potency ([3]; week 2, 40 ° C.): 1610 µg/mL | Roxithromycin Potency ([3]; week 4, 5 ° C.): 1920 µg/mL | Roxithromycin Potency ([3]; week 4, 25 ° C.): 1710 µg/mL | Roxithromycin Potency ([3]; week 4, 40 ° C.): 1470 µg/mL
